Converted amounts (≈) assume the structure as drawn.
How the values were obtained:
P388 = assay: Cytotoxicity against mouse P388 cells; type: functional, cell-based
Umbelopsis ramanniana = assay: Antifungal activity against Mortierella ramanniana; type: functional
Candida albicans = assay: Antifungal activity against Candida albicans; type: functional
Penicillium chrysogenum = assay: Antifungal activity against Penicillium chrysogenum; type: functional

## C[C@H]1/C=C/C=C/C=C/C=C/[C@H](O[C@@H]2O[C@H](C)[C@@H](O)[C@H](N)[C@@H]2O)C[C@@H]2O[C@](O)(C[C@@H](O)CC(=O)C(=O)/C=C/C(=O)O[C@@H]1C)C[C@H](O)[C@H]2C(=O)O [TETRIN C]
P388
  IC50: 4.6 µg/mL (≈ 6.63 µM)
Umbelopsis ramanniana
  MIC: 5 µg/mL (≈ 7.21 µM)
Candida albicans
  MIC: 10 µg/mL (≈ 14.4 µM)
Penicillium chrysogenum
  MIC: 10 µg/mL (≈ 14.4 µM)
